Experimental data: US20250163057A1, “DCN-1 MODULATING COMPOUNDS AND METHODS OF USE THEREOF” (Cellarity, Inc., priority 2023, published 2025)

Biological target: DCN1 protein (Homo sapiens (Human), UniProt Q96GG9)
Experiment: Intact Protein MS Analysis with the RapidFire-TOF System (covalent adduct formation)
Type: binding
Settings: MS Emax; 400 nM DCN1, 3 hours at room temperature
Procedure: An MS assay was performed to evaluate the ability of the compounds to covalently modify DCN-1.
DCN1 protein, His-TEV-DCN1, were expressed in E. Coli. The His-tagged protein was first purified with an Ni-NTA column. The His-tag was cleaved using His-tag TEV protease and the His-tags were removed using a second Ni-NTA column. Protein purity was verified with SDS-PAGE and intact MS. DCN1 was dissolved in a buffer containing 25 mM Tris-HCl, 200 mM NaCl, and 1 mM DTT at 400 nM. 11 concentrations of compounds were added to the DCN1 solution and incubated at room temperature for 3 hours, unless otherwise specified. The reaction plates were quenched by adding 0.2% formic acid. […] The cartridge was re-equilibrated with loading buffer for 1 second before collection of the next sample. The Q-TOF was operated in TOF-only positive ionization mode set to the following parameters: Gas Temp=350 C, Drying Gas=7 l/min, Nebulizer=50 psi, Sheath Gas Temp=400 C, Sheath Gas Flow=12 l/min, Vcap=4000 V, Nozzle Voltage=1000 V, Fragmentor=125 V, Skimmer=65 V and Oct 1 RF Vpp=750V. Raw MS data files were deconvoluted and analyzed using the Agilent MassHunter Bioconfirm software package to identify both parent protein and expected compound adduct mass signatures.

Chain of DCN1 protein (Q96GG9 whole entry): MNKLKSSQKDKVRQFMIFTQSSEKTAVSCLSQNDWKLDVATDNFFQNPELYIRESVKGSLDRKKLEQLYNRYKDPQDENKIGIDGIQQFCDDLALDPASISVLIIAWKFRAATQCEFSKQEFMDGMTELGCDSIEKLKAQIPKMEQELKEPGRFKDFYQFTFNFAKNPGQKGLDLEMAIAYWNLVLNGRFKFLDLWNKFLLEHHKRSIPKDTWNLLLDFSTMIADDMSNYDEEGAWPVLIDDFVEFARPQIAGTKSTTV

SMILES	% Adduct Formation
CCN1C(=O)[C@@H](NC(=O)c2cccc(C(F)(F)F)c2)[C@@H](c2ccc(F)cc2)c2c([C@@H](C)NS(=O)(=O)CCl)nn(-c3ccccc3)c21 (mixture of isomers) [Compound I-215]	+ (MS Emax % adduct formation greater than or equal to 0.0 and less than or equal to 30.0)
CCN1C(=O)[C@@H](NC(=O)c2cccc(C(F)(F)F)c2)[C@@H](c2ccc(F)cc2)c2c(CNC(=O)/C(C#N)=C/C3CC3)nn(-c3ccccc3)c21 (racemic) [Compound I-217]	+ (MS Emax % adduct formation greater than or equal to 0.0 and less than or equal to 30.0)
CCN1C(=O)[C@@H](NC(=O)c2cccc(C(F)(F)F)c2)[C@@H](c2ccc(F)cc2)c2c([C@@H](C)NC(=O)/C=C/CN3CCOCC3)nn(-c3ccccc3)c21 (mixture of isomers) [Compound I-165]	+ (MS Emax % adduct formation greater than or equal to 0.0 and less than or equal to 30.0)
CCN1C(=O)[C@@H](NC(=O)c2cccc(C(F)(F)F)c2)[C@@H](c2ccc(F)cc2)c2c(CNC(=O)/C=C/CN(C)C)nn(-c3ccccc3)c21 (racemic) [Compound I-220]	+ (MS Emax % adduct formation greater than or equal to 0.0 and less than or equal to 30.0)
CCN1C(=O)[C@@H](NC(=O)c2cccc(C(F)(F)F)c2)[C@@H](c2ccc(F)cc2)c2c([C@H](C)NC(=O)CCl)nn(-c3ccccc3)c21 (mixture of isomers) [Compound I-175]	+ (MS Emax % adduct formation greater than or equal to 0.0 and less than or equal to 30.0)
CC#CC(=O)N[C@H](C)c1nn(-c2ccccc2)c2c1[C@H](c1ccc(F)cc1)[C@H](NC(=O)c1cccc(C(F)(F)F)c1)C(=O)N2CC (mixture of isomers) [Compound I-209]	+ (MS Emax % adduct formation greater than or equal to 0.0 and less than or equal to 30.0)
CCN1C(=O)[C@@H](NC(=O)c2cccc(C(F)(F)F)c2)[C@@H](c2ccc(F)cc2)c2c(C(=O)N(C)[C@H](C#N)CCN(C)C)nn(-c3ccccc3)c21 (relative stereo) [Compound I-303, (4S,5S)—N-[(1S*)-1-cyano-3-(dimethylamino)propyl]-7-ethyl-4-(4-fluorophenyl)-N-methyl-6-oxo-1-phenyl-5-[3-(trifluoromethyl)benzamido]-4H,5H-pyrazolo[3,4-b]pyridine-3-carboxamide]	++ (MS Emax % adduct formation greater than 30.0 and less than or equal to 80.0)
C=C(C(=O)OCC)c1nn(-c2ccccc2)c2c1[C@H](c1ccc(F)cc1)[C@@H](NC(=O)c1cccc(C(F)(F)F)c1)C(=O)N2CC (racemic) [Compound I-195, rac-ethyl 2-((4R,5S)-7-ethyl-4-(4-fluorophenyl)-6-oxo-1-phenyl-5-(3-(trifluoromethyl)benzamido)-4,5,6,7-tetrahydro-1H-pyrazolo[3,4-b]pyridine-3-yl)acrylate]	+ (MS Emax % adduct formation greater than or equal to 0.0 and less than or equal to 30.0)
CCN1C(=O)[C@@H](NC(=O)c2cccc(C(F)(F)F)c2)[C@@H](c2ccc(F)cc2)c2c(CN(C)C(=O)C(F)Cl)nn(-c3ccccc3)c21 (stereo partly shown) [Compound I-145]	+ (MS Emax % adduct formation greater than or equal to 0.0 and less than or equal to 30.0)
C=C(C(=O)N(C)C)c1nn(-c2ccccc2)c2c1[C@H](c1ccc(F)cc1)[C@H](NC(=O)c1cccc(C(F)(F)F)c1)C(=O)N2CC (racemic) [Compound I-188, rac-N-((4R,5R)-3-(3-(dimethylamino)-3-oxoprop-1-en-2-yl)-7-ethyl-4-(4-fluorophenyl)-6-oxo-1-phenyl-4,5,6,7-tetrahydro-1H-pyrazolo[3,4-b]pyridine-5-yl)-3-(trifluoromethyl)benzamide]	+ (MS Emax % adduct formation greater than or equal to 0.0 and less than or equal to 30.0)
C=C(F)C(=O)NCc1nn(-c2ccccc2)c2c1[C@H](c1ccc(F)cc1)[C@H](NC(=O)c1cccc(C(F)(F)F)c1)C(=O)N2CC [Compound I-240]	+ (MS Emax % adduct formation greater than or equal to 0.0 and less than or equal to 30.0)
CCN1C(=O)[C@@H](NC(=O)c2cccc(C(F)(F)F)c2)[C@@H](c2ccc(F)cc2)c2c(CNC(=O)/C=C/C(F)(F)F)nn(-c3ccccc3)c21 (racemic) [Compound I-221]	+ (MS Emax % adduct formation greater than or equal to 0.0 and less than or equal to 30.0)
CCN1C(=O)[C@@H](NC(=O)c2cccc(C(F)(F)F)c2)[C@@H](c2ccc(F)cc2)c2c(C(CCl)C(=O)N(C)C)nn(-c3ccccc3)c21 (mixture of isomers) [Compound I-216, rac-N-((4R,5R)-3-(3-chloro-1-(dimethylamino)-1-oxopropan-2-yl)-7-ethyl-4-(4-fluorophenyl)-6-oxo-1-phenyl-4,5,6,7-tetrahydro-1H-pyrazolo[3,4-b]pyridine-5-yl)-3-(trifluoromethyl)benzamide]	+ (MS Emax % adduct formation greater than or equal to 0.0 and less than or equal to 30.0)
CCN1C(=O)[C@@H](NC(=O)c2cccc(C(F)(F)F)c2)[C@@H](c2ccc(F)cc2)c2c(CN(C)C(=O)C3=CCCC3)nn(-c3ccccc3)c21 (racemic) [Compound I-233]	+ (MS Emax % adduct formation greater than or equal to 0.0 and less than or equal to 30.0)
C#Cc1nn(-c2ccccc2)c2c1[C@H](c1ccc(F)cc1)[C@H](NC(=O)c1cccc(C(F)(F)F)c1)C(=O)N2CC (racemic) [Compound I-199, N-((4S,5S)-7-ethyl-3-ethynyl-4-(4-fluorophenyl)-6-oxo-1-phenyl-4,5,6,7-tetrahydro-1H-pyrazolo[3,4-b]pyridine-5-yl)-3-(trifluoromethyl)benzamide]	+ (MS Emax % adduct formation greater than or equal to 0.0 and less than or equal to 30.0)
CCN1C(=O)[C@@H](NC(=O)c2cccc(C(F)(F)F)c2)[C@@H](c2ccc(F)cc2)c2c([C@@H](C)NC(=O)C3=CCC3)nn(-c3ccccc3)c21 (mixture of isomers) [Compound I-237]	+ (MS Emax % adduct formation greater than or equal to 0.0 and less than or equal to 30.0)
CCN1C(=O)[C@@H](NC(=O)c2cccc(C(F)(F)F)c2)[C@@H](c2ccc(F)cc2)c2c(CNC(=O)C(Cl)Cl)nn(-c3ccccc3)c21 (racemic) [Compound I-169]	+ (MS Emax % adduct formation greater than or equal to 0.0 and less than or equal to 30.0)
C#CCNC(=O)c1nn(-c2ccccc2)c2c1[C@H](c1ccc(F)cc1)[C@H](NC(=O)c1cccc(C(F)(F)F)c1)C(=O)N2CC (racemic) [Compound I-242]	+ (MS Emax % adduct formation greater than or equal to 0.0 and less than or equal to 30.0)
CCN1C(=O)[C@@H](NC(=O)c2cccc(C(F)(F)F)c2)[C@@H](c2ccc(F)cc2)c2c(CN(C)C(=O)COc3c(F)c(F)cc(F)c3F)nn(-c3ccccc3)c21 (racemic) [Compound I-228]	+ (MS Emax % adduct formation greater than or equal to 0.0 and less than or equal to 30.0)
CCN1C(=O)[C@@H](NC(=O)c2cccc(C(F)(F)F)c2)[C@@H](c2ccc(F)cc2)c2c(NC(=O)COc3c(F)c(F)cc(F)c3F)nn(-c3ccccc3)c21 (racemic) [Compound I-176]	+ (MS Emax % adduct formation greater than or equal to 0.0 and less than or equal to 30.0)
CCN1C(=O)[C@@H](NC(=O)c2cccc(C(F)(F)F)c2)[C@@H](c2ccc(F)cc2)c2c([C@@H](C)NC(=O)C3=CCCC3)nn(-c3ccccc3)c21 (mixture of isomers) [Compound I-166]	+ (MS Emax % adduct formation greater than or equal to 0.0 and less than or equal to 30.0)
CCN1C(=O)[C@@H](NC(=O)c2cccc(C(F)(F)F)c2)[C@@H](c2ccc(F)cc2)c2c(NC(=O)C(F)Cl)nn(-c3ccccc3)c21 (mixture of isomers) [Compound I-120]	+ (MS Emax % adduct formation greater than or equal to 0.0 and less than or equal to 30.0)
C=C(C(=O)O)c1nn(-c2ccccc2)c2c1[C@H](c1ccc(F)cc1)[C@@H](NC(=O)c1cccc(C(F)(F)F)c1)C(=O)N2CC (racemic) [Compound I-208, rac-2-((4R,5S)-7-ethyl-4-(4-fluorophenyl)-6-oxo-1-phenyl-5-(3-(trifluoromethyl)benzamido)-4,5,6,7-tetrahydro-1H-pyrazolo[3,4-b]pyridine-3-yl)acrylic acid]	+ (MS Emax % adduct formation greater than or equal to 0.0 and less than or equal to 30.0)
CCN1C(=O)[C@@H](NC(=O)c2cccc(C(F)(F)F)c2)[C@@H](c2ccc(F)cc2)c2c(CN3C(=O)C=CC3=O)nn(-c3ccccc3)c21 (racemic) [Compound I-170]	+ (MS Emax % adduct formation greater than or equal to 0.0 and less than or equal to 30.0)
CCN1C(=O)[C@@H](NC(=O)c2cccc(C(F)(F)F)c2)[C@@H](c2ccc(F)cc2)c2c([C@@H](C)NC(=O)COc3c(F)c(F)cc(F)c3F)nn(-c3ccccc3)c21 (mixture of isomers) [Compound I-168]	+ (MS Emax % adduct formation greater than or equal to 0.0 and less than or equal to 30.0)
